Laboratory results as given in PubChem BioAssay AID1918941 (Molecular Pharmacology Branch, DTP, NCI, 2023).

System: SW 1271 complex spheroids, viability
Assay: Anticancer human tumor SW 1271 cell line growth inhibition [LSD1];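 further: spheroids exposed to agents for 7 days before luminescence read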;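 on viability, T/C: 100% = DMSO vehicle control viability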
Settings: for IC50: curve of first compound; for viability, T/C: stronger effect = lower value
Procedure, shortened: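 Drug combinations with the LSD1 inhibitor iadademstat tested on tumor cells co-cultured as spheroids with endothelial cells and mesenchymal stem cells. Concentrations descended in half-log increments from clinical Cmax or 10 microM.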

[1] = second compound 0.1 µM, first compound 0.0316 µM
[2] = second compound 0.1 µM, first compound 0.1 µM
[3] = second compound 0.1 µM, first compound 0.316 µM
[4] = second compound 0.1 µM, first compound 1 µM
[5] = second compound 0.316 µM, first compound 0.0316 µM
[6] = second compound 0.316 µM, first compound 0.1 µM
[7] = second compound 0.316 µM, first compound 0.316 µM
[8] = second compound 0.316 µM, first compound 1 µM
[9] = second compound 1 µM, first compound 0.0316 µM
[10] = second compound 1 µM, first compound 0.1 µM
[11] = second compound 1 µM, first compound 0.316 µM
[12] = second compound 1 µM, first compound 1 µM
[13] = second compound 3.16 µM, first compound 0.0316 µM
[14] = second compound 3.16 µM, first compound 0.1 µM
[15] = second compound 3.16 µM, first compound 0.316 µM
[16] = second compound 3.16 µM, first compound 1 µM
[17] = second compound 10 µM, first compound 0.0316 µM
[18] = second compound 10 µM, first compound 0.1 µM
[19] = second compound 10 µM, first compound 0.316 µM
[20] = second compound 10 µM, first compound 1 µM
[21] = second compound 0.1 µM, first compound 0.00949 µM
[22] = second compound 0.1 µM, first compound 0.03 µM
[23] = second compound 0.1 µM, first compound 0.0949 µM
[24] = second compound 0.1 µM, first compound 0.3 µM
[25] = second compound 0.1 µM, first compound 0.949 µM
[26] = second compound 0.1 µM, first compound 3 µM
[27] = second compound 0.316 µM, first compound 0.00949 µM
[28] = second compound 0.316 µM, first compound 0.03 µM
[29] = second compound 0.316 µM, first compound 0.0949 µM
[30] = second compound 0.316 µM, first compound 0.3 µM
[31] = second compound 0.316 µM, first compound 0.949 µM
[32] = second compound 0.316 µM, first compound 3 µM
[33] = second compound 1 µM, first compound 0.00949 µM
[34] = second compound 1 µM, first compound 0.03 µM
[35] = second compound 1 µM, first compound 0.0949 µM
[36] = second compound 1 µM, first compound 0.3 µM
[37] = second compound 1 µM, first compound 0.949 µM
[38] = second compound 1 µM, first compound 3 µM
[39] = second compound 3.16 µM, first compound 0.00949 µM
[40] = second compound 3.16 µM, first compound 0.03 µM
[41] = second compound 3.16 µM, first compound 0.0949 µM
[42] = second compound 3.16 µM, first compound 0.3 µM
[43] = second compound 3.16 µM, first compound 0.949 µM
[44] = second compound 3.16 µM, first compound 3 µM
[45] = second compound 10 µM, first compound 0.00949 µM
[46] = second compound 10 µM, first compound 0.03 µM
[47] = second compound 10 µM, first compound 0.0949 µM
[48] = second compound 10 µM, first compound 0.3 µM
[49] = second compound 10 µM, first compound 0.949 µM
[50] = second compound 10 µM, first compound 3 µM
[51] = second compound 0.1 µM, first compound 0.00316 µM
[52] = second compound 0.1 µM, first compound 0.01 µM
[53] = second compound 0.316 µM, first compound 0.00316 µM
[54] = second compound 0.316 µM, first compound 0.01 µM
[55] = second compound 1 µM, first compound 0.00316 µM
[56] = second compound 1 µM, first compound 0.01 µM
[57] = second compound 3.16 µM, first compound 0.00316 µM
[58] = second compound 3.16 µM, first compound 0.01 µM
[59] = second compound 10 µM, first compound 0.00316 µM
[60] = second compound 10 µM, first compound 0.01 µM

## CC1(C)CCC(CN2CCN(c3ccc(C(=O)NS(=O)(=O)c4ccc(NCC5CCOCC5)c([N+](=O)[O-])c4)c(Oc4cnc5[nH]ccc5c4)c3)CC2)=C(c2ccc(Cl)cc2)C1 + NC1CCC(NC2CC2c2ccccc2)CC1
Second compound 0.1 µM
  IC50: 2.1 µM
Second compound 0.316 µM
  IC50: 2.05 µM
Second compound 1 µM
  IC50: 2.04 µM
Second compound 3.16 µM
  IC50: 2.17 µM
Second compound 10 µM
  IC50: 2.35 µM
[1]
  viability, T/C: 103%
[2]
  viability, T/C: 95.6%
[3]
  viability, T/C: 94.6%
[4]
  viability, T/C: 92.2%
Second compound 0.1 µM, first compound 3.16 µM
  viability, T/C: 26.9%
Second compound 0.1 µM, first compound 10 µM
  viability, T/C: 0.57%
[5]
  viability, T/C: 100%
[6]
  viability, T/C: 100%
[7]
  viability, T/C: 106%
[8]
  viability, T/C: 96.6%
Second compound 0.316 µM, first compound 3.16 µM
  viability, T/C: 21.6%
Second compound 0.316 µM, first compound 10 µM
  viability, T/C: 0.63%
[9]
  viability, T/C: 89.5%
[10]
  viability, T/C: 90.5%
[11]
  viability, T/C: 99.7%
[12]
  viability, T/C: 103%
Second compound 1 µM, first compound 3.16 µM
  viability, T/C: 21.9%
Second compound 1 µM, first compound 10 µM
  viability, T/C: 0.38%
[13]
  viability, T/C: 96.4%
[14]
  viability, T/C: 101%
[15]
  viability, T/C: 99%
[16]
  viability, T/C: 97.2%
Second compound 3.16 µM, first compound 3.16 µM
  viability, T/C: 26.9%
Second compound 3.16 µM, first compound 10 µM
  viability, T/C: 0.42%
[17]
  viability, T/C: 92.5%
[18]
  viability, T/C: 102%
[19]
  viability, T/C: 97.8%
[20]
  viability, T/C: 95.4%
Second compound 10 µM, first compound 3.16 µM
  viability, T/C: 34.3%
Second compound 10 µM, first compound 10 µM
  viability, T/C: 0.66%

## CCN(c1cc(-c2ccc(CN3CCOCC3)cc2)cc(C(=O)NCc2c(C)cc(C)[nH]c2=O)c1C)C1CCOCC1 + NC1CCC(NC2CC2c2ccccc2)CC1
Second compound 0.1 µM
  IC50: > 3 µM
Second compound 0.316 µM
  IC50: > 3 µM
Second compound 1 µM
  IC50: > 3 µM
Second compound 3.16 µM
  IC50: > 3 µM
Second compound 10 µM
  IC50: > 3 µM
[21]
  viability, T/C: 98.7%
[22]
  viability, T/C: 97%
[23]
  viability, T/C: 93.6%
[24]
  viability, T/C: 94.8%
[25]
  viability, T/C: 82.5%
[26]
  viability, T/C: 75%
[27]
  viability, T/C: 95%
[28]
  viability, T/C: 113%
[29]
  viability, T/C: 98.8%
[30]
  viability, T/C: 93%
[31]
  viability, T/C: 85.5%
[32]
  viability, T/C: 67.3%
[33]
  viability, T/C: 104%
[34]
  viability, T/C: 103%
[35]
  viability, T/C: 107%
[36]
  viability, T/C: 94.2%
[37]
  viability, T/C: 71.6%
[38]
  viability, T/C: 75.8%
[39]
  viability, T/C: 119%
[40]
  viability, T/C: 107%
[41]
  viability, T/C: 104%
[42]
  viability, T/C: 94.6%
[43]
  viability, T/C: 76.5%
[44]
  viability, T/C: 56.8%
[45]
  viability, T/C: 106%
[46]
  viability, T/C: 105%
[47]
  viability, T/C: 88.7%
[48]
  viability, T/C: 95.6%
[49]
  viability, T/C: 72.9%
[50]
  viability, T/C: 66.9%

## COc1cc(Nc2ncc3c(n2)-c2ccc(Cl)cc2C(c2c(F)cccc2OC)=NC3)ccc1C(=O)O + NC1CCC(NC2CC2c2ccccc2)CC1
Second compound 0.1 µM
  IC50: 0.2 µM
Second compound 0.316 µM
  IC50: 0.148 µM
Second compound 1 µM
  IC50: 0.184 µM
Second compound 3.16 µM
  IC50: 0.175 µM
Second compound 10 µM
  IC50: 0.186 µM
[51]
  viability, T/C: 84.2%
[52]
  viability, T/C: 78.2%
[1]
  viability, T/C: 80.3%
[2]
  viability, T/C: 59.5%
[3]
  viability, T/C: 42.9%
[4]
  viability, T/C: 16%
[53]
  viability, T/C: 81.2%
[54]
  viability, T/C: 80.3%
[5]
  viability, T/C: 75.9%
[6]
  viability, T/C: 55.4%
[7]
  viability, T/C: 36%
[8]
  viability, T/C: 13.5%
[55]
  viability, T/C: 83.5%
[56]
  viability, T/C: 81.9%
[9]
  viability, T/C: 85.4%
[10]
  viability, T/C: 58.3%
[11]
  viability, T/C: 40.4%
[12]
  viability, T/C: 13.7%
[57]
  viability, T/C: 97.3%
[58]
  viability, T/C: 80.4%
[13]
  viability, T/C: 84.8%
[14]
  viability, T/C: 62.1%
[15]
  viability, T/C: 36.3%
[16]
  viability, T/C: 15.1%
[59]
  viability, T/C: 81.3%
[60]
  viability, T/C: 80.5%
[17]
  viability, T/C: 79.7%
[18]
  viability, T/C: 59.2%
[19]
  viability, T/C: 40.7%
[20]
  viability, T/C: 14.1%

## Cn1ncnc1C1c2n[nH]c(=O)c3cc(F)cc(c23)NC1c1ccc(F)cc1 (stereo not given) + NC1CCC(NC2CC2c2ccccc2)CC1
Second compound 0.1 µM
  IC50: > 0.1 µM
Second compound 0.316 µM
  IC50: > 0.1 µM
Second compound 1 µM
  IC50: > 0.1 µM
Second compound 3.16 µM
  IC50: > 0.1 µM
Second compound 10 µM
  IC50: > 0.1 µM
Second compound 0.1 µM, first compound 0.000316 µM
  viability, T/C: 93%
Second compound 0.1 µM, first compound 0.001 µM
  viability, T/C: 104%
[51]
  viability, T/C: 88.4%
[52]
  viability, T/C: 94.9%
[1]
  viability, T/C: 88.6%
[2]
  viability, T/C: 90.4%
Second compound 0.316 µM, first compound 0.000316 µM
  viability, T/C: 86.9%
Second compound 0.316 µM, first compound 0.001 µM
  viability, T/C: 98.3%
[53]
  viability, T/C: 103%
[54]
  viability, T/C: 91.8%
[5]
  viability, T/C: 82.8%
[6]
  viability, T/C: 86.8%
Second compound 1 µM, first compound 0.000316 µM
  viability, T/C: 91.7%
Second compound 1 µM, first compound 0.001 µM
  viability, T/C: 90.9%
[55]
  viability, T/C: 83.5%
[56]
  viability, T/C: 84.3%
[9]
  viability, T/C: 85%
[10]
  viability, T/C: 83%
Second compound 3.16 µM, first compound 0.000316 µM
  viability, T/C: 83.4%
Second compound 3.16 µM, first compound 0.001 µM
  viability, T/C: 87.7%
[57]
  viability, T/C: 79.9%
[58]
  viability, T/C: 98.1%
[13]
  viability, T/C: 76.5%
[14]
  viability, T/C: 93.2%
Second compound 10 µM, first compound 0.000316 µM
  viability, T/C: 98.6%
Second compound 10 µM, first compound 0.001 µM
  viability, T/C: 86.7%
[59]
  viability, T/C: 83.5%
[60]
  viability, T/C: 88.1%
[17]
  viability, T/C: 85.3%
[18]
  viability, T/C: 81.7%

## NS(=O)(=O)OCC1CC(n2ccc3c(NC4CCc5ccccc54)ncnc32)CC1O (stereo not given) + NC1CCC(NC2CC2c2ccccc2)CC1
Second compound 0.1 µM
  IC50: > 3 µM
Second compound 0.316 µM
  IC50: > 3 µM
Second compound 1 µM
  IC50: > 3 µM
Second compound 3.16 µM
  IC50: > 3 µM
Second compound 10 µM
  IC50: > 3 µM
[21]
  viability, T/C: 149%
[22]
  viability, T/C: 125%
[23]
  viability, T/C: 77.5%
[24]
  viability, T/C: 84.7%
[25]
  viability, T/C: 79.6%
[26]
  viability, T/C: 74.8%
[27]
  viability, T/C: 162%
[28]
  viability, T/C: 131%
[29]
  viability, T/C: 87.7%
[30]
  viability, T/C: 73.6%
[31]
  viability, T/C: 77.5%
[32]
  viability, T/C: 77.8%
[33]
  viability, T/C: 164%
[34]
  viability, T/C: 115%
[35]
  viability, T/C: 82.4%
[36]
  viability, T/C: 66.5%
[37]
  viability, T/C: 80.7%
[38]
  viability, T/C: 75.5%
[39]
  viability, T/C: 132%
[40]
  viability, T/C: 113%
[41]
  viability, T/C: 93.8%
[42]
  viability, T/C: 75.2%
[43]
  viability, T/C: 69.8%
[44]
  viability, T/C: 70.1%
[45]
  viability, T/C: 163%
[46]
  viability, T/C: 124%
[47]
  viability, T/C: 86.5%
[48]
  viability, T/C: 73.9%
[49]
  viability, T/C: 73.9%
[50]
  viability, T/C: 70.2%
